≈ marks a conversion by molar mass, not a printed value. Where two headings read alike, the source gives them in different places.
Tests used:
[1] = Hemolytic activity, spectrophotometric; assay type: cell-based, human; conditions: human, human red blood cells (huRBC), 5% hematocrit, 200 μg/mL, 37 °C
[2] = system: N. gonorrhoeae ATCC 49226; experiment: MIC on GC agar plates; assay type: cell-based, Neisseria gonorrhoeae
Procedure: An initial screening for bacterial inhibition was performed by the agar diffusion method. […] DMSO and TSB were included as negative controls. Gentamicin and trimethoprim sulfamethoxazole were included as a positive control for growth inhibition. Derivatives showing growth inhibition were tested at least twice before being selected for the microdilution test. For N. gonorrhoeae, the agar diffusion method was also used for screening with some modifications. […] Penicillin and tetracycline were used as controls. […] Briefly, GC agar supplemented with 1% isovitalex was prepared with increasing concentrations of the new compounds and inoculated with 10 µL of a bacterial suspension (1 × 10^4 CFU). The lowest concentration of the compound that inhibited bacterial growth was determined as the MIC. Bacterial growth was examined and verified using the oxidase test. The experiments were performed in duplicate in at least two independent assays.

[3] = system: Cryptococcus neoformans (ATCC 32264); experiment: Antifungal broth microdilution (CLSI); assay type: cell-based; conditions: ATCC32264; Cn: Cryptococcus neoformans
Procedure: (§1) Several of the obtained triazine derivatives were evaluated against sensitive fungal species comprising of two yeasts (Candida albicans (ATCC 10231), Cryptococcus neoformans (ATCC 32264)), three dermatophytes (Microsporum gypseum (CCC 115), Trichophyton rubrum (CCC 134-2000), Trichophyton mentagrophytes (CCC 202-2000)), and three Aspergillus fungi ((A. [NT] 26934), A. niger (ATCC 9029), and A. flavus (ATCC 9170)). […] Broth microdilution techniques were performed in 96-well microplates according to the Reference Method for Broth Dilution Antifungal Susceptibility Testing of Yeasts, document M27-A3 [86] and of Filamentous Fungi […]-A8 [87]. […] An inoculum suspension (100 μL) was added to each well (final well volume = 200 μL). One growth control well (containing medium, inoculum, and the same amount of DMSO as used for each compound) and one sterility control well (sample, medium, and sterile water instead of inoculum) were included for each fungus tested. Microtiter plates were incubated in a dark, humid chamber at 30 °C for the time necessary for each fungus. Amphotericin B, Terbinafine, Fluconazole and Itraconazole were used as a positive control. The tests were performed in triplicate.

[4] = system: Candida albicans (ATCC 10231); experiment: Antifungal broth microdilution (CLSI); assay type: cell-based; conditions: ATCC10231; Ca: Candida albicans
Procedure: as §1

[5] = system: A. fumigatus (ATCC 26934); experiment: Antifungal broth microdilution (CLSI); assay type: cell-based; conditions: ATCC26934; Afu: Aspergillus fumigatus
Procedure: as §1

A. flavus (ATCC 9170) = experiment: Antifungal broth microdilution (CLSI); assay type: cell-based; conditions: ATCC9170; Afl: Aspergillus flavus
Procedure: as §1

A. niger (ATCC 9029) = experiment: Antifungal broth microdilution (CLSI); assay type: cell-based; conditions: ATCC9029; Ani: Aspergillus niger
Procedure: as §1

[6] = system: Trichophyton rubrum (CCC 134-2000); experiment: Antifungal broth microdilution (CLSI); assay type: cell-based; conditions: Tr: Trichophyton rubrum
Procedure: as §1

[7] = system: Microsporum gypseum (CCC 115); experiment: Antifungal broth microdilution (CLSI); assay type: cell-based; conditions: Nannizzia gypsea; Mg: Microsporum gypseum
Procedure: as §1

[8] = system: Trichophyton mentagrophytes (CCC 202-2000); experiment: Antifungal broth microdilution (CLSI); assay type: cell-based; conditions: Tm: Trichophyton mentagrophytes
Procedure: as §1

[9] = system: M. tuberculosis ATCC 27294; experiment: Antitubercular broth microdilution MIC; assay type: cell-based; conditions: Mycobacterium tuberculosis; M. tuberculosis ATCC 27294 (H37Rv); read-out: Minimum inhibitory concentration (MIC)
60 cancer cell lines = experiment: NCI-60 one-dose screen (10 μM); assay type: cell-based; conditions: Homo sapiens; one dose of 10 μM, mean over 60 cancer cell lines; read-out: Mean Growth Percent (MGP)
Description: Additionally, the mean of the growth percentages (MGP) of each compound against all the 60 cancer cell lines is also reported, which is used as one of the selection criteria to continue with tests at five concentration doses.

[10] = system: N. gonorrhoeae ATCC 49226; conditions: control drugs, range in parenthesis; cited from earlier work
Galleria mellonella = experiment: Toxicity in the Galleria mellonella model; conditions: G. mellonella larvae, at the higher doses
Procedure: G mellonella larvae were cultivated in the laboratory and healthy, beige larvae weighing 150–200 mg, were selected for toxicity assays.

[11] = system: human red blood cells (huRBC); experiment: Hemolytic activity, spectrophotometric; assay type: cell-based; conditions: 200 μg/mL, 24 h, 37 °C
[12] = Neisseria gonorrhoeae, ATCC49226, read-out: MIC

Compound	hemolysis at 24 h, 200 µg/mL [1] [%]	MIC [2, 12] [µg/mL]	MIC [3] [µg/mL]	MIC [4] [µg/mL]	MIC [5] [µg/mL]	MIC (A. flavus (ATCC 9170)) [µg/mL]	MIC (A. niger (ATCC 9029)) [µg/mL]	MIC [6] [µg/mL]	MIC [7] [µg/mL]	MIC [8] [µg/mL]	MIC [9] [µg/mL]	activity at 10 µM (60 cancer cell lines) [%]	MIC range values for this strain [10] [µg/mL]	MIC [2] [µg/mL]	mortality (Galleria mellonella) [%]	% Hemolysis [11] [%]
COc1ccc(C2=Nc3c(N)nc(N)nc3NC(c3ccc(Oc4nc(Nc5ccc(F)cc5)nc(N(C)C)n4)c(OC)c3)C2)cc1 (stereo not shown) [29c]	2.9	62.5 (≈ 98 µM)	> 250	> 250	> 250	> 250	> 250	> 250	125 (≈ 196 µM)	> 250	1.2 (≈ 1.88 µM)	64.2				
CC(=O)c1ccc(S(=O)(=O)NCCNc2nc(N(C)C)nc(N3CCOCC3)n2)cc1 [compound 17]	1.6		> 250	> 250	> 250	> 250	> 250	125 (≈ 278 µM)	> 250	> 250		108				
Penicillin [reference compound]													0.25 to 1.0	0.25		
COc1cc(C2CC(c3ccc(S(=O)(=O)NCCNc4nc(N(C)C)nc(N5CCOCC5)n4)cc3)=Nc3c(N)nc(N)nc3N2)cc(OC)c1OC (stereo not shown) [30d]	11	16.1 (≈ 21.5 µM)	> 250	> 250	> 250	> 250	> 250	125 (≈ 167 µM)	> 250	> 250		95			≤ 25	
C[C@@H]1[C@H](O)[C@@H](C)/C=C/C=C/C=C/C=C/C=C/C=C/C=C/[C@H](O[C@@H]2O[C@H](C)[C@@H](O)[C@H](N)[C@@H]2O)C[C@@H]2O[C@](O)(C[C@@H](O)C[C@@H](O)[C@H](O)CC[C@@H](O)C[C@@H](O)CC(=O)O[C@H]1C)C[C@H](O)[C@H]2C(=O)O [Amphotericin B, reference compound]			0.25 (≈ 0.271 µM)	0.5 (≈ 0.541 µM)	0.5 (≈ 0.541 µM)	0.5 (≈ 0.541 µM)	0.5 (≈ 0.541 µM)	0.075 (≈ 0.0812 µM)	0.125 (≈ 0.135 µM)	0.075 (≈ 0.0812 µM)						
NNC(=O)c1ccncc1 [Isoniazid, reference compound]											0.1 (≈ 0.729 µM)					
COc1ccc(C2CC(c3ccc(S(=O)(=O)NCCNc4nc(Nc5ccc(F)cc5)nc(N(C)C)n4)cc3)=Nc3c(N)nc(N)nc3N2)cc1 (stereo not shown) [31c]	1.2	8 (≈ 11.2 µM)									1.2 (≈ 1.68 µM)	75.8				
COc1cc(C2CC(c3ccc(F)cc3)=Nc3c(N)nc(N)nc3N2)ccc1Oc1nc(Nc2ccc(F)cc2)nc(N(C)C)n1 (stereo not shown) [29f]	0	0.5 (≈ 0.799 µM)	> 250	> 250	> 250	> 250	> 250	> 250	125 (≈ 200 µM)	> 250	2.5 (≈ 4 µM)	45.2				
CN(C/C=C/C#CC(C)(C)C)Cc1cccc2ccccc12 [Terbinafine, reference compound]								0.01 (≈ 0.0343 µM)	0.04 (≈ 0.137 µM)	0.025 (≈ 0.0858 µM)						
COc1ccc(C2=Nc3c(N)nc(N)nc3NC(c3ccc(Oc4nc(NCCO)nc(N5CCOCC5)n4)c(OC)c3)C2)cc1 (stereo not shown) [28c]	7	0.5 (≈ 0.794 µM)										102				
COc1cc(C2CC(c3cc(OC)c(OC)c(OC)c3)=Nc3c(N)nc(N)nc3N2)ccc1Oc1nc(Nc2ccc(F)cc2)nc(N(C)C)n1 (stereo not shown) [29d]	> 75	16.1 (≈ 23.1 µM)									5 (≈ 7.17 µM)	54.5				75
COc1cc(C2CC(c3ccc(Cl)cc3)=Nc3c(N)nc(N)nc3N2)ccc1Oc1nc(NCCO)nc(N2CCOCC2)n1 (stereo not shown) [28e]	5	8 (≈ 12.6 µM)										70.2				
COc1cc(C2CC(c3ccc(S(=O)(=O)NCCNc4nc(Nc5ccc(F)cc5)nc(N(C)C)n4)cc3)=Nc3c(N)nc(N)nc3N2)cc(OC)c1OC (stereo not shown) [31d]	0.6	500 (≈ 646 µM)									5 (≈ 6.46 µM)	79.6				

Source: article PMC11012124, “Synthesis of Novel Triazine-Based Chalcones and 8,9-dihydro-7H-pyrimido[4,5-b][1,4]diazepines as Potential Leads in the Search of Anticancer, Antibacterial and Antifungal Agents” (International Journal of Molecular Sciences, 2024)
